pIC50: −log10 of the molar value. Where “and” joins values, the source holds several entries; their conditions need not be identical. Equal entries are not always repeated.
System: 743489-274-T-PDC complex spheroid growth
Assay: Anticancer human tumor 743489-274-T-PDC patient-derived renal cell carcinoma cell line growth inhibition [AhR]
Conditions: for viability, T/C: stronger effect = lower value
Text: Multicellular complex tumor spheroid response to aryl hydrocarbon receptor antagonists in combination with a variety of drugs and investigational agents in selected tumor cell lines
The current study was undertaken to assess response to aryl hydrocarbon receptor antagonists in combination with standard-of-care drugs and investigational agents in solid tumor complex spheroid models. Complex spheroids include a stromal component modeled by human endothelial cells (HUVEC) and fibroblasts modeled by human mesenchymal stem cells (MSCs). The concentration ranges selected for each drug and investigational agent were based upon clinically achievable concentrations if the clinical Cmax of the agent was known.
Compounds. The drugs and investigational agents: BAY 2416964 (NSC825713), GNF351 (NSC835774), CH-223191 (NSC835775), CPI-455 (NSC825282), aza-TdCyd (NSC777586), decitabine (NSC127716), belinostat (NSC758774), entinostat (NSC756642), pevonedistat (NSC761192), tazemetostat (NSC777109), talazoparib (NSC765396), olaparib (NSC753686), selinexor (NSC780203), nedisertib (M3814, NSC802822), bortezomib (NSC756655), venetoclax (NSC766270), doxorubicin (NSC123127), elimusertib (BAY189344, NSC800525), ceralasertib (AZD6738, NSC777638), TAK-243 (NSC785004), alisertib (NSC759677), etoposide (NSC141540), topotecan (NSC609699), eribulin (NSC707389), gemcitabine (NSC613327), carboplatin (NSC241240), cisplatin (NSC119875), and SN-38 (NSC673596) were obtained from the National Cancer Institute (NCI) Developmental Therapeutics Program Chemical Repository (32). The FDA-approved anticancer drug set is available from the Developmental Therapeutics Program at https://dtp.cancer.gov/organization/dscb/obtaining/available plates.htm. […] The stock solutions were prepared in dimethyl sulfoxide (DMSO, Sigma-Aldrich, St. Louis, MO, cat. D2650), except for the platinum compounds which were prepared in saline (Quality Biological, Gaithersburg, MD, cat. 114-055-101), at 800-fold the tested concentration and stored at -70 degrees C prior to their use. All drugs and investigational agents were tested over a range starting from a high concentration at or near the clinical Cmax and decreasing in half-log increments. If the clinical Cmax for an agent had not been determined, the highest concentration tested was 10 microM (Table 1).
Cell Culture. All cells were maintained in an incubator at 37 degrees C and 5% CO2 with 95% humidity. The PDC lines were cultured according to standard operating procedures established by the NCI PDMR (https://pdmr.cancer.gov). Briefly, all PDCs were thawed and cultured in Matrigel-coated flasks prepared with a working solution of 1X Ham's F-12 nutrient mix, without supplementation (Invitrogen, Waltham, MA, cat. 11765054), 100 U/mL penicillin-streptomycin (Invitrogen, cat. 15140122), and 2.5% Matrigel (Corning Inc., Corning, NY, cat. 354248) for the first three passages. All PDCs were cultured in complete DMEM/F-12 media containing advanced DMEM/F-12 (Invitrogen, cat. 12634028), 4.9% defined fetal bovine serum, heat inactivated (HyClone Laboratories Inc., Logan, UT, cat. SH30070.03HI), 389 ng/mL hydrocortisone (Sigma-Aldrich, cat. H4001), 9.7 ng/mL human EGF recombinant protein (Invitrogen, cat. PHG0313), 23.4 microg/mL adenine (Sigma-Aldrich, cat. A2786), 97.3 U/mL penicillin-streptomycin (Invitrogen, cat. 15140122), 1.9 mM L-glutamine (Invitrogen, cat. 25030081), and 9.7 microM Y-27632 dihydrochloride (Tocris Bioscience, Bristol, United Kingdom, cat. 1254). The PDCs were cultured in complete DMEM/F12 media without 10 microM Y-27632 dihydrochloride for at least two passages prior to the screen. The established cell lines NCI-H1341 and […] were cultured in DMEM/F-12, HEPES (Invitrogen, cat. 11330032), 5% defined fetal bovine serum (HyClone Laboratories Inc., cat. SH30070.03), ITS premix universal culture supplement [insulin (5 microg/mL), transferrin (5 microg/mL), and selenious acid (5 ng/mL)] […]
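Further: spheroids exposed to agents for 7 days before readout.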
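Wherever viability, T/C is given: 100% = DMSO vehicle control wells.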

With `NS(=O)(=O)OCC1CC(n2ccc3c(NC4CCc5ccccc54)ncnc32)CC1O` (centres undefined) + CC(CO)NC(=O)c1cc(-c2ccc(Cl)cc2)nn(-c2cnn(C)c2)c1=O the pIC50 (curve of first compound, second compound 0.1 µM) was under 5.00, the pIC50 (curve of first compound, second compound 0.316 µM) was under 5.00 and the pIC50 (curve of first compound, second compound 1 µM) was under 5.00. The pIC50 (curve of first compound, second compound 3.16 µM) was under 5.00, the pIC50 (curve of first compound, second compound 10 µM) was under 5.00 and the viability, T/C (second compound 0.1 µM, first compound 0.0316 µM) was 89.3%. For the same compound, the viability, T/C (second compound 0.1 µM, first compound 0.1 µM) was 89.7%, the viability, T/C (second compound 0.1 µM, first compound 0.316 µM) was 101% and the viability, T/C (second compound 0.1 µM, first compound 1 µM) was 123%. The viability, T/C (second compound 0.1 µM, first compound 3.16 µM) was 149%, the viability, T/C (second compound 0.1 µM, first compound 10 µM) was 155% and the viability, T/C (second compound 0.316 µM, first compound 0.0316 µM) was 86.1%. The viability, T/C (second compound 0.316 µM, first compound 0.1 µM) was 82.3%, the viability, T/C (second compound 0.316 µM, first compound 0.316 µM) was 85.7% and the viability, T/C (second compound 0.316 µM, first compound 1 µM) was 119%. The viability, T/C (second compound 0.316 µM, first compound 3.16 µM) was 148%, the viability, T/C (second compound 0.316 µM, first compound 10 µM) was 156% and the viability, T/C (second compound 1 µM, first compound 0.0316 µM) was 82.3%. For the same compound, the viability, T/C (second compound 1 µM, first compound 0.1 µM) was 96.7%, the viability, T/C (second compound 1 µM, first compound 0.316 µM) was 99.2% and the viability, T/C (second compound 1 µM, first compound 1 µM) was 116%. The viability, T/C (second compound 1 µM, first compound 3.16 µM) was 141%, the viability, T/C (second compound 1 µM, first compound 10 µM) was 143% and the viability, T/C (second compound 3.16 µM, first compound 0.0316 µM) was 91.1%. The viability, T/C (second compound 3.16 µM, first compound 0.1 µM) was 86.1%, the viability, T/C (second compound 3.16 µM, first compound 0.316 µM) was 99.2% and the viability, T/C (second compound 3.16 µM, first compound 1 µM) was 109%. The viability, T/C (second compound 3.16 µM, first compound 3.16 µM) was 132%, the viability, T/C (second compound 3.16 µM, first compound 10 µM) was 136% and the viability, T/C (second compound 10 µM, first compound 0.0316 µM) was 89.5%. For the same compound, the viability, T/C (second compound 10 µM, first compound 0.1 µM) was 96.1%, the viability, T/C (second compound 10 µM, first compound 0.316 µM) was 84.8% and the viability, T/C (second compound 10 µM, first compound 1 µM) was 112%. It also gave a viability, T/C (second compound 10 µM, first compound 3.16 µM) of 119% and a viability, T/C (second compound 10 µM, first compound 10 µM) of 129%.

With `CC(C)c1c(-c2ccccc2)nc2c(C#N)c[nH]n2c1=O` the viability, T/C (compound 0.0316 µM) was 110% and 112% and 107%, the viability, T/C (compound 0.1 µM) was 110% and 105% and 109% and the viability, T/C (compound 0.316 µM) was 101% (2×) and 103%. For the same compound, the viability, T/C (compound 1 µM) was 109% and 104% and 112%, the viability, T/C (compound 3.16 µM) was 107% and 106% and 111% and the viability, T/C (compound 10 µM) was 101% and 107% and 102%. It also gave a pIC50 (curve of compound) of under 5.00.

For `NS(=O)(=O)OCC1CC(n2ccc3c(NC4CCc5ccccc54)ncnc32)CC1O` (centres undefined), the viability, T/C (compound 0.0316 µM) was 102% and 104% and 93.9%, the viability, T/C (compound 0.1 µM) was 105% and 121% and 96.2% and the viability, T/C (compound 0.316 µM) was 114% and 108% and 103%. The viability, T/C (compound 1 µM) was 132% and 136% and 138%, the viability, T/C (compound 3.16 µM) was 137% and 132% and 156% and the viability, T/C (compound 10 µM) was 150% and 128% and 161%. For the same compound, the pIC50 (curve of compound) was under 5.00.

Reference: PubChem BioAssay AID1919002 (Molecular Pharmacology Branch, DTP, NCI, 2023)
